# Reference: patent publication US9079859B2, “Synthetic lethal targeting of glucose transport” (AUCKLAND UNISERVICES LIMITED, priority 2011, dated 2015)
# Tests used:
# RCC4 cells [1] = assay: Clonogenic survival, RCC4; format: cell-based; settings: STF-31 5 μM, media replaced, grown for a total of 10 days (FIG. 1D)
# Protocol: Cell Viability Assays. For 2,3-bis[2-methoxy-4-nitro-5-sulfophenyl]-2H-tetrazolium-5-carboxanilide (XTT) assays, five thousand cells were plated in 96-well plates. The next day, vehicle (DMSO) or drug was added by serial dilution. Four days later, media were aspirated, XTT solution (0.3 mg/ml of XTT (Sigma), […] N-methyl dibenxopyrazine methyl sulfate (Sigma) in phenol red-free media) was added, and the plates were incubated at 37° C. for 1-2 hours. Metabolism of XTT was quantified by measuring the absorbance at 450 nm. IC50s were calculated using linear interpolation. For clonogenic survival assays, three hundred cells were plated per 60 mm tissue culture dish. […] Colonies were fixed and stained with crystal violet (0.1% crystal violet in 95% ethanol). All conditions were measured in triplicate and each experiment was done in duplicate or triplicate. To determine necrosis, cells were treated with drug for a given time point. Media and cells were collected, centrifugated, and resuspended in 0.4% trypan blue (Invitrogen). Live and dead cells were counted on a hematocytometer.
# ACHN shVHL cells = assay: Clonogenic survival, ACHN with shRNA to VHL; format: cell-based; settings: clonogenic survival (FIG. 1E); only the VHL-silenced cells
# Protocol: (§1) Cell Viability Assays. For 2,3-bis[2-methoxy-4-nitro-5-sulfophenyl]-2H-tetrazolium-5-carboxanilide (XTT) assays, five thousand cells were plated in 96-well plates. The next day, vehicle (DMSO) or drug was added by serial dilution. Four days later, media were aspirated, XTT solution (0.3 mg/ml of XTT (Sigma), […] N-methyl dibenxopyrazine methyl sulfate (Sigma) in phenol red-free media) was added, and the plates were incubated at 37° C. for 1-2 hours. Metabolism of XTT was quantified by measuring the absorbance at 450 nm. IC50s were calculated using linear interpolation. For clonogenic survival assays, three hundred cells were plated per 60 mm tissue culture dish. The cells were allowed to attach overnight and then treated with vehicle or drug for 14 days. Colonies were fixed and stained with crystal violet (0.1% crystal violet in 95% ethanol). All conditions were measured in triplicate and each experiment was done in duplicate or triplicate. To determine necrosis, cells were treated with drug for a given time point. Media and cells were collected, centrifugated, and resuspended in 0.4% trypan blue (Invitrogen). Live and dead cells were counted on a hematocytometer.
# RCC4/VHL cells [2] = assay: Necrotic cell death by trypan blue, RCC4/VHL; format: cell-based; settings: 5 μM, 3 days
# Protocol: as §1
# RCC4 cells [3] = assay: Lactate production, VHL-deficient cells; format: cell-based; set-up: dose or concentration left out as unconfirmed; settings: VHL-deficient cells vs control-treated; STF-31 as printed in FIG. 2 legend
# Protocol: (§2) HIF is important to adapting to low oxygen conditions through the transcription of many genes, including those involved in glucose metabolism. It was hypothesized that STF-31 might inhibit metabolic pathways, leading to necrotic cell death. To examine whether this compound alters glycolysis, intracellular lactate, which is rapidly converted from the glycolysis end product pyruvate, and extracellular acidification were measured. Baseline levels of glycolysis were lower in wild-type VHL cells compared to VHL-deficient cells (FIGS. 2, A and B), likely a result of the constitutive expression of HIF and subsequent overexpression of glucose transporters and glycolytic enzymes in the latter.
# Cell Culture and Reagents. All cells were grown in DMEM+10% FCS. ACHN and ACHN shVHL were a kind gift from George V. Thomas (UCLA). HIF overexpressing clones were described previously (Sutphin et al., Cancer Res, 67:5896-5905 (2007)). […] GLUT1 was detected with anti-GLUT1 antibody from NeoMarkers/LabVision/Fisher. For immunofluorescent studies, GLUT1, GLUT2, and GLUT3 antibodies were purchased from R&D. Pyruvate/lactate levels and hexokinase activity were both measured by fluorometric assay (BioVision and Sigma-Aldrich, respectively). ATP levels were measured by bioluminescence assay (ATP Determination Kit from Molecular Probes/Invitrogen). […]
# VHL-deficient cells = assay: Extracellular acidification rate, VHL-deficient cells; format: cell-based; set-up: dose or concentration left out as unconfirmed; settings: VHL-deficient cells vs control-treated; 48 hours
# Protocol: as §2
# RCC4 cells [4] = assay: Glucose uptake (2-deoxy-D-[3H]glucose), RCC4; format: cell-based
# Protocol: (§3) Glucose Uptake. One hundred thousand cells were plated per well in a six-well plate. The next day, cells were treated with the indicated concentration of drug and incubated for the indicated time. Cells were then washed twice with phosphate-buffered saline, incubated in low-glucose medium for 30 minutes, and 3H-2-deoxyglucose (0.5 μCi) was added in 1 ml of glucose-free media for an additional hour. Cells were washed twice in PBS and lysed (0.2 N NaOH and 0.2% sodium dodecyl sulfate). Glucose uptake was quantified with a scintillation counter.
# 786-O cells = assay: Glucose uptake (2-deoxy-D-[3H]glucose), 786-O; format: cell-based; settings: 5 μM (FIG. 6C)
# Protocol: as §3
# RCC4/VHL cells [5] = assay: Glucose uptake (2-deoxy-D-[3H]glucose), RCC4/VHL; format: cell-based
# Protocol: as §3
# GLUT1 = GLUT1 protein levels; format: cell-based
# Text: Moreover, the levels of soluble GLUT1 protein were also unaffected by STF-31 (FIG. 8D). […] Active analogs, which selectively kill VHL-deficient cells through glucose uptake, docked within the central channel of GLUT1 (FIG. 3F).
# Caki-1 = assay: RCC panel sensitivity (Table 2); format: cell-based; settings: Caki-1, VHL wild-type
# RCC4 = assay: RCC panel sensitivity (Table 2); format: cell-based; settings: RCC4, VHL mutant
# SN12C = assay: RCC panel sensitivity (Table 2); format: cell-based; settings: VHL wild-type
# UMRC6 = assay: RCC panel sensitivity (Table 2); format: cell-based; settings: UMRC6, VHL mutant
# 786/VHL = assay: RCC panel sensitivity (Table 2); format: cell-based; settings: VHL wild-type
# EphA1 = target: T1, EphA1 (Homo sapiens, UniProt P21709); assay: Kinase Profiler; format: biochemical; settings: STF-31 10 μM
# T1 construct: purchased Millipore (Kinase Profiler service)
# T1 sequence (P21709 26-976, species assumed): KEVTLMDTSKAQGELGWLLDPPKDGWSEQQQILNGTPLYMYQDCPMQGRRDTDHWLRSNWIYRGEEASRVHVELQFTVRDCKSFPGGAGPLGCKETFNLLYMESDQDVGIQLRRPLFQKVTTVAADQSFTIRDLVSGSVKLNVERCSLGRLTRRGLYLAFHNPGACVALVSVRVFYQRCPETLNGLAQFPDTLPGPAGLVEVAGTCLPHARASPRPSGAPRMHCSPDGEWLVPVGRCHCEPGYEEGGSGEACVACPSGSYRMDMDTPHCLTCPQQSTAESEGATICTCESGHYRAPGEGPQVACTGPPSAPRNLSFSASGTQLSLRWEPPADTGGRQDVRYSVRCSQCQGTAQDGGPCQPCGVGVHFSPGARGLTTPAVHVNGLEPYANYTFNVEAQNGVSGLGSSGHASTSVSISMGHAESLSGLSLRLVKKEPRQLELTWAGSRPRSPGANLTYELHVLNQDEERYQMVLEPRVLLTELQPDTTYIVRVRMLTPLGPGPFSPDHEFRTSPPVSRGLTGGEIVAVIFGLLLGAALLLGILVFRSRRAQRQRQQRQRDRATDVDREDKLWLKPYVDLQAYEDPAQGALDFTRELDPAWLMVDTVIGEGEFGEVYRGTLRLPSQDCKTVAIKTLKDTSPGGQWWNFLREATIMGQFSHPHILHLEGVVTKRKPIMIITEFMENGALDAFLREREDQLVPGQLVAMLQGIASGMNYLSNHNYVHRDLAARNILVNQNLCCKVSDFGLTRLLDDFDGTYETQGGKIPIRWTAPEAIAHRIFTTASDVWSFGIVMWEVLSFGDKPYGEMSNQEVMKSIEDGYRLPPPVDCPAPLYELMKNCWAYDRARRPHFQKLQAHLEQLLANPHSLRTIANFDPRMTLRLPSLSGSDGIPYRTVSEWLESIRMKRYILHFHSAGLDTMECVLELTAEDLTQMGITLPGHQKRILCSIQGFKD
# Protocol: (§4) Cell Culture and Reagents. All cells were grown in DMEM+10% FCS. ACHN and ACHN shVHL were a kind gift from George V. Thomas (UCLA). HIF overexpressing clones were described previously (Sutphin et al., Cancer Res, 67:5896-5905 (2007)). Transfection of RNA oligos were performed with DnarmaFECT Reagent 1 (Dharmcon), according to manufacturer's directions. ON-TARGETplus SMART pools against HIF-1 R/ARNT were purchased from Dharmacon. Inducible shRNAmir to GLUT1 was purchased from Open Biosystems. GLUT1 was detected with anti-GLUT1 antibody from NeoMarkers/LabVision/Fisher. For immunofluorescent studies, GLUT1, GLUT2, and GLUT3 antibodies were purchased from R&D. Pyruvate/lactate levels and hexokinase activity were both measured by fluorometric assay (BioVision and Sigma-Aldrich, respectively). ATP levels were measured by bioluminescence assay (ATP Determination Kit from Molecular Probes/Invitrogen). In vitro kinase activities were performed by Millipore Kinase Profiler.
# PAK2 = target: T2, PAK2 (Homo sapiens, UniProt Q13177); assay: Kinase Profiler; format: biochemical; settings: STF-31 10 μM
# T2 construct: purchased Millipore Kinase Profiler
# T2 sequence (Q13177 whole entry, species assumed): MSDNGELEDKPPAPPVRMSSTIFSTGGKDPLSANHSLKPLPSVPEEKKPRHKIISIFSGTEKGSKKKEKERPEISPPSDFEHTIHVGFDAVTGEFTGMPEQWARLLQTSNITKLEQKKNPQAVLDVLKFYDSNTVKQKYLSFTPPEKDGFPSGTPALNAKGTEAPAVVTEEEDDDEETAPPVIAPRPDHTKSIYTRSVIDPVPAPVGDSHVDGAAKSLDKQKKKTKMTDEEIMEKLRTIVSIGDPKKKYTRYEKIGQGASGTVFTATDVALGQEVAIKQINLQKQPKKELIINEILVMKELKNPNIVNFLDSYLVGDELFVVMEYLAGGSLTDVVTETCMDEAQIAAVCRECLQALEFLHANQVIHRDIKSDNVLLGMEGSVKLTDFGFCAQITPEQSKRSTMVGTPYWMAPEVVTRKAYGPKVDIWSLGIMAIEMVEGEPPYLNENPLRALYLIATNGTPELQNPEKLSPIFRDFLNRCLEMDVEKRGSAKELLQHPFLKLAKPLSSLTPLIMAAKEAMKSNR
# Protocol: as §4
# mTOR = target: T3, mTOR (Homo sapiens, UniProt P42345); assay: Kinase Profiler; format: biochemical; settings: STF-31 10 μM
# T3 construct: purchased Millipore Kinase Profiler
# Protocol: as §4
# [6] = increasing concentrations of STF-31
smiles,measurement,setting,value
CC(C)(C)c1ccc(S(=O)(=O)NCc2ccc(C(=O)Nc3cccnc3)cc2)cc1 [STF-31],RCC4 cells killed following treatment,RCC4 cells [1],Approximately 80%
same,sensitivity of ACHN cells with VHL silenced by shRNA,ACHN shVHL cells,sensitive
same,necrotic cell death of RCC4/VHL cells,RCC4/VHL cells [2],relatively insensitive
same,inhibition of lactate production,RCC4 cells [3],about 60%
same,inhibition of extracellular acidification,VHL-deficient cells,about 60%
same,glucose uptake in RCC4 cells,RCC4 cells [4]; 2-deoxy-D-[3H]glucose,impaired
same,glucose uptake in RCC4 cells versus concentration,RCC4 cells [4]; [6],dose-dependent
same,glucose uptake in 786-O cells,786-O cells,impaired
same,glucose uptake in RCC4/VHL cells,RCC4/VHL cells [5]; 2-deoxy-D-[3H]glucose,unaffected
same,glucose uptake in RCC4/VHL cells versus concentration,RCC4/VHL cells [5]; [6],relatively stable
same,levels of soluble GLUT1 protein,GLUT1; soluble and insoluble fractions,unaffected
same,GLUT1 protein levels,"GLUT1; time- or concentration-dependent (1.25-10 μM, 3 days)",did not affect
same,3-series sensitivity (sensitivity to STF-31),Caki-1,Yes
same,3-series sensitivity (sensitivity to STF-31),RCC4,Yes
same,3-series sensitivity (sensitivity to STF-31),SN12C,Yes
same,3-series sensitivity (sensitivity to STF-31),UMRC6,No
same,3-series sensitivity (sensitivity to STF-31),786/VHL,Yes
same,Kinase response to STF-31,EphA1,102
same,Kinase response to STF-31,PAK2,97
same,Kinase response to STF-31,mTOR,101
